Reference: patent US20250320213A1, “Nitrogen-Containing Heterocyclic Compounds” (Pfizer Inc., priority 2024, published 2025)

Tests used:
STAT6 = target: T1, STAT6 (Homo sapiens, UniProt P42226); assay: STAT6 Reporter Luciferase Assay (IL-13 stimulated HaCaT keratinocyte NanoLuc reporter cells); format: cell-based; conditions: IL-13 stimulated HaCaT STAT6 NanoLuc reporter cells; read-out: Reporter EC50
T1 construct: stably transfected HaCaT keratinocyte cell line, which expresses NanoLuc luciferase reporter gene under the transcriptional control of the STAT6 responsive promoter; endogenous in cells; host or cells: HaCaT keratinocyte reporter cell line (stably transfected with a NanoLuc reporter)
T1 sequence (P42226 1-847): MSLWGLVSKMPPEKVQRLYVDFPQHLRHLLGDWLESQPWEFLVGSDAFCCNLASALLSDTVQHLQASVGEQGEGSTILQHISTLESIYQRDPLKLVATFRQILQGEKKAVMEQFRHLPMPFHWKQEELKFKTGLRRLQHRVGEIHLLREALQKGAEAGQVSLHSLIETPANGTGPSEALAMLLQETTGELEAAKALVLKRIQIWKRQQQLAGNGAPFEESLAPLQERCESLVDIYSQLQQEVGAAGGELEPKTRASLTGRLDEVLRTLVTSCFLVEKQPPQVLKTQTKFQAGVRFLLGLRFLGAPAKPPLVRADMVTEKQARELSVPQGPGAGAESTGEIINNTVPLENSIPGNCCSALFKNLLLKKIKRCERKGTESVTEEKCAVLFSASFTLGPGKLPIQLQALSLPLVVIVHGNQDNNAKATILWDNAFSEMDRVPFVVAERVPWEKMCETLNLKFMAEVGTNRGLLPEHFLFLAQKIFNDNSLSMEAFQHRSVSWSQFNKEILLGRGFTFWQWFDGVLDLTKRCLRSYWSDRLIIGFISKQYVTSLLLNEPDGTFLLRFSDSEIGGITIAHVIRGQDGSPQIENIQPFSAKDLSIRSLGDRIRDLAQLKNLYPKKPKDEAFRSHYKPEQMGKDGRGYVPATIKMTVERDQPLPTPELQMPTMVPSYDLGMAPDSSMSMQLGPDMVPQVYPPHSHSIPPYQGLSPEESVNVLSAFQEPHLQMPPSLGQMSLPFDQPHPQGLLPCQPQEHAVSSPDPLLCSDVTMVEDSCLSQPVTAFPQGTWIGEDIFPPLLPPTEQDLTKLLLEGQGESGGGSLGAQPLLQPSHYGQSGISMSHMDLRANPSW
Outline: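 Luminescence from a NanoLuc reporter driven by the STAT6-responsive IL-13Ra2 promoter in HaCaT keratinocytes serves as the read-out. Compounds are given 2 h before a 4 h stimulation with 0.12 nM IL-13.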

[1] = tested on: CCL17 secretion in peripheral human whole blood; assay: Human Whole Blood (HWB) CCL17 TR-FRET Assay (IL-13 stimulated CCL17 secretion); format: cell-based; conditions: human whole blood, IL-13 stimulated
Outline: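 Heparin-anticoagulated human blood; cpd 11-pt 3-fold dilution, duplicate, 2 h 37 °C preinc; IL-13 10 ng/mL final, 48 h 37 °C; spin, serum CCL17 by TR-FRET ELISA, 16 h RT, 665/615 ratio; IC50.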

Row | Structure (SMILES) | EC50 (STAT6) [nM] | IC50 ([1]; Homo sapiens, 48 h) [nM] | IC50 ([1]; 48 hours) [nM]
1 | CCn1nc(C(=O)NCc2ccc(NC(=O)N(C)C)cc2)c2c1[C@@H](C)[C@H](C)N(c1ccc(C(=O)N(C)C)cn1)C2 (single isomer, unassigned) [Example 352] | 0.3 | 3 | 
2 | CCn1nc(C(=O)NCc2ccc(NC(=O)N(C)C)cc2)c2c1[C@H](C)[C@@H](C)N(c1ccc(C(=O)N(C)C)cn1)C2 (single isomer, unassigned) [Example 353] | 4 | 47 | 
3 | CC(C)n1nc(C(=O)NCc2ccc(NC(=O)N(C)C)cc2)c2c1[C@H](C)[C@@H](C)N(c1ccc(C(=O)N(C)C)cn1)C2 (single isomer, unassigned) [Example 354] | 4 | 24 | 
4 | CC(C)n1nc(C(=O)NCc2ccc(NC(=O)N(C)C)cc2)c2c1[C@@H](C)[C@H](C)N(c1ccc(C(=O)N(C)C)cn1)C2 (single isomer, unassigned) [Example 355] | 0.2 | 3 | 
5 | CNC(=O)c1ccc(CNC(=O)c2nn(C(C)C)c3c2CN(c2ccc(C(=O)N(C)C)cn2)CC3C(F)(F)F)cc1 (single isomer, unassigned) [Example 356, rel-(R or S)-5-(5-(dimethylcarbamoyl)pyridin-2-yl)-1-isopropyl-N-(4-(methylcarbamoyl)benzyl)-7-(trifluoromethyl)-4,5,6,7-tetrahydro-1H-pyrazolo[4,3-c]pyridine-3-carboxamide] | 246 |  | 3310
6 | CNC(=O)c1ccc(CNC(=O)c2nn(C(C)C)c3c2CN(c2ccc(C(=O)N(C)C)cn2)CC3C(F)(F)F)cc1 (single isomer, unassigned) [Example 357, rel-(R or S)-5-(5-(dimethylcarbamoyl)pyridin-2-yl)-1-isopropyl-N-(4-(methylcarbamoyl)benzyl)-7-(trifluoromethyl)-4,5,6,7-tetrahydro-1H-pyrazolo[4,3-c]pyridine-3-carboxamide] | 1 |  | 20
7 | CC(CO)n1nc(C(=O)NCc2ccc(NC(=O)N(C)C)cc2)c2c1CCN(c1ccc(C(=O)N(C)C)cn1)C2 (single isomer, unassigned) [Example 359, rel-(R or S)-5-(5-(dimethylcarbamoyl)pyridin-2-yl)-N-(4-(3,3-dimethylureido)benzyl)-1-(1-hydroxypropan-2-yl)-4,5,6,7-tetrahydro-1H-pyrazolo[4,3-c]pyridine-3-carboxamide] | 358 |  | 869
8 | CC(CO)n1nc(C(=O)NCc2ccc(NC(=O)N(C)C)cc2)c2c1CCN(c1ccc(C(=O)N(C)C)cn1)C2 (single isomer, unassigned) [Example 360, rel-(R or S)-5-(5-(dimethylcarbamoyl)pyridin-2-yl)-N-(4-(3,3-dimethylureido)benzyl)-1-(1-hydroxypropan-2-yl)-4,5,6,7-tetrahydro-1H-pyrazolo[4,3-c]pyridine-3-carboxamide] | 74 |  | 91
9 | CC(C)n1nc(C(=O)NCc2ccc(NC(=O)N(C)C)cc2)c2c1CCN(c1ccc(C3CCCO3)cn1)C2 (single isomer, unassigned) [Example 361, rel-(R or S)-N-(4-(3,3-dimethylureido)benzyl)-1-isopropyl-5-(5-(tetrahydrofuran-2-yl)pyridin-2-yl)-4,5,6,7-tetrahydro-1H-pyrazolo[4,3-c]pyridine-3-carboxamide] | 158 | > 4080 | 
10 | CC(C)n1nc(C(=O)NCc2ccc(NC(=O)N(C)C)cc2)c2c1CCN(c1ccc(C3CCCO3)cn1)C2 (single isomer, unassigned) [Example 362, rel-(R or S)-N-(4-(3,3-dimethylureido)benzyl)-1-isopropyl-5-(5-(tetrahydrofuran-2-yl)pyridin-2-yl)-4,5,6,7-tetrahydro-1H-pyrazolo[4,3-c]pyridine-3-carboxamide] | 838 |  | > 3490
11 | CN(C)C(=O)Nc1ccc(CNC(=O)c2nn(C)c3c2CN(c2ccc(C(=O)N(C)C)cn2)CC3C(F)(F)F)cc1 (single isomer, unassigned) [Example 391, rel-(R or S)-5-(5-(dimethylcarbamoyl)pyridin-2-yl)-N-(4-(3,3-dimethylureido)benzyl)-1-methyl-7-(trifluoromethyl)-4,5,6,7-tetrahydro-1H-pyrazolo[4,3-c]pyridine-3-carboxamide] | 740 | 2170 | 
12 | CN(C)C(=O)Nc1ccc(CNC(=O)c2nn(C)c3c2CN(c2ncc(C(=O)N(C)C)cn2)CC3C(F)(F)F)cc1 (single isomer, unassigned) [Example 392, rel-(R or S)-5-(5-(dimethylcarbamoyl)pyrimidin-2-yl)-N-(4-(3,3-dimethylureido)benzyl)-1-methyl-7-(trifluoromethyl)-4,5,6,7-tetrahydro-1H-pyrazolo[4,3-c]pyridine-3-carboxamide] | 568 | 1080 | 
13 | CC(C)n1nc(C(=O)NCc2ccc(NC(=O)N(C)C)cc2)c2c1CCN(c1ccc(C3CCCCO3)cn1)C2 (single isomer, unassigned) [Example 393, rel-(R or S)-N-(4-(3,3-dimethylureido)benzyl)-1-isopropyl-5-(5-(tetrahydro-2H-pyran-2-yl)pyridin-2-yl)-4,5,6,7-tetrahydro-1H-pyrazolo[4,3-c]pyridine-3-carboxamide] | > 8750 | > 30000 | 
14 | CC(C)n1nc(C(=O)NCc2ccc(NC(=O)N(C)C)cc2)c2c1CCN(c1ccc(C3CCCCO3)cn1)C2 (single isomer, unassigned) [Example 394, rel-(R or S)-N-(4-(3,3-dimethylureido)benzyl)-1-isopropyl-5-(5-(tetrahydro-2H-pyran-2-yl)pyridin-2-yl)-4,5,6,7-tetrahydro-1H-pyrazolo[4,3-c]pyridine-3-carboxamide] | > 7660 |  | > 30000
15 | CCc1nc(C(=O)NCc2ccc(NC(=O)N(C)C)cc2)c2n1C(C)CN(c1ccc(C(=O)N(C)C)cc1)C2 (single isomer, unassigned) [Example 428, rel-(R or S)-7-(4-(dimethylcarbamoyl)phenyl)-N-(4-(3,3-dimethylureido)benzyl)-3-ethyl-5-methyl-5,6,7,8-tetrahydroimidazo[1,5-a]pyrazine-1-carboxamide] | 17 |  | 140
16 | CCc1nc(C(=O)NCc2ccc(NC(=O)N(C)C)cc2)c2n1C(C)CN(c1ccc(C(=O)N(C)C)cc1)C2 (single isomer, unassigned) [Example 429, rel-(R or S)-7-(4-(dimethylcarbamoyl)phenyl)-N-(4-(3,3-dimethylureido)benzyl)-3-ethyl-5-methyl-5,6,7,8-tetrahydroimidazo[1,5-a]pyrazine-1-carboxamide] | 1 |  | 6
17 | C[C@H]1c2c(C(=O)NCc3ccc(NC(=O)N(C)C)cc3)nn(C)c2CCN1c1ccc(C(=O)N(C)C)cn1 (single isomer, unassigned) [Example 444] | 158 | 1380 | 
18 | C[C@@H]1c2c(C(=O)NCc3ccc(NC(=O)N(C)C)cc3)nn(C)c2CCN1c1ccc(C(=O)N(C)C)cn1 (single isomer, unassigned) [Example 445] | 2 | 21 | 
19 | CCn1nc(C(=O)NCc2ccc(NC(=O)N(C)C)cc2)c2c1[C@H](C)[C@@H](C)N(c1ncc(C(=O)N(C)C)cn1)C2 (single isomer, unassigned) [Example 446] | 15 | 80 | 
